Data published in patent publication US20170043031A1, “IGF-1R ANTIBODY-DRUG-CONJUGATE AND ITS USE FOR THE TREATMENT OF CANCER” (PIERRE FABRE MEDICAMENT, priority 2014, published 2017).

System: lysosome functions
Assay: Inhibition of Abs degradation using lysosome inhibitor
Format: cell-based
Conditions: 10 μg/ml of Ab, 2 h at 37° C.
Method: In order to confirm that antibodies reached the lysosome were they are degraded, cells were treated or not with bafilomycine A1, a potent inhibitor of lysosome functions. Cells were then incubated with 10 μg/ml of Ab to be tested at 4° C., washed and incubated for 2 h at 37° C. The internalized Ab was detected after cell permeabilisation using a secondary anti-mouse IgG-Alexa 488 Ab.

CO/C1=C\C(C)=C\[C@@H](C)[C@@H](O)[C@@H](C)C/C(C)=C/C=C/[C@H](OC)[C@@H]([C@@H](C)[C@@H](O)[C@H](C)[C@@]2(O)C[C@@H](O)[C@H](C)[C@@H](C(C)C)O2)OC1=O [bafilomycine A1]
degradation of intracellular Ab: prevented the degradation of intracellular Ab
